The record followed here is US20260042769A1, “TRIARYL AGONISTS OF ALPHA-2 ADRENERGIC RECEPTORS” (ALCEPTOR THERAPEUTICS, INC., priority 2023, published 2026).

The target in the test is T1, human ADRA2B receptor (Homo sapiens, UniProt P18089).
T1 construct: expressed in transfected cells
T1 sequence (P18089 1-450): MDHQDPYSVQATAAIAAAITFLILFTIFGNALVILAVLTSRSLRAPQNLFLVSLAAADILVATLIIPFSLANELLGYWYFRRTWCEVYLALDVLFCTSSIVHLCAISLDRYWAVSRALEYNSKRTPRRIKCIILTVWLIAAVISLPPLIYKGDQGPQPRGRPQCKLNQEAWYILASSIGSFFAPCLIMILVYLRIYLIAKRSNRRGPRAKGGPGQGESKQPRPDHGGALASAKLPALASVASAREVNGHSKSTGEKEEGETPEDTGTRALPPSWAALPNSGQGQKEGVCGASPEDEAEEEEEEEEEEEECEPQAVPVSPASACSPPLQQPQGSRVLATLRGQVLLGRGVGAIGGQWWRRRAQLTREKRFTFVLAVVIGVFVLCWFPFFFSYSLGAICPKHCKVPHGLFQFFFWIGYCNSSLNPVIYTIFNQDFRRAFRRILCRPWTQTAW
The test can be described thus: GTPγS agonist assay, ADRA2B receptor. To be noted: read-out: GTPase - Human Alpha2B EC50. It counts as biochemical. As for the experimental part: GTP ? S Agonist Assays (ADRA2A, ADRA2B, and ADRA2C Receptors)
Membranes were prepared for GTP ? S binding assays from CHO-K1 cells stably expressing human ADRA2A, ADRA2B, or ADRA2C receptor. Briefly, cells were grown in 5-layer cell culture flasks. Cells were washed with 50 mL of PBS and then dissociated with 0.05% trypsin. Dissociated cells were then collected by centrifugation at 650×g for 8 min at 4° C. Pellets were washed again in PBS by centrifugation and resuspended in 30 mL of 20 mM HEPES, 10 mM EDTA, pH 7.4. After sitting on ice for 30 min, membranes were collected by centrifugation at 50000×g for 15 min at 4° C., resuspended in 30 mL of 20 mM HEPES, 0.1 mM EDTA, pH 7.4 and collected again by centrifugation. Pellets were then washed twice by centrifugation in 30 mL of 20 mM HEPES, pH 7.4, and stored at −80° C. until the day of the assay. On the day of the assay, pellets were thawed on ice and resuspended in 1 mL of 20 mM HEPES, pH 7.4, 10 mM MgCl2, 100 mM NaCl using dounce homogenization. Membrane protein concentration was determined by BCA protein assay (Promega, Madison, WI) according to Promega guidelines.
On the day of the assay, serial dilutions of test compounds were brought up in assay buffer (20 mM HEPES, 10 mM MgCl2, 200 mM NaCl) at 10× final assay concentration. 50 μL/well of membrane homogenates (containing 5 μg of membrane protein for ADRA2A, ADRA2B, or 7.5 μg for ADRA2C) were prepared in assay buffer supplemented with GDP at 2× final assay concentration (5 μM GDP) and dispensed into 96 well polypropylene, U-bottom Greiner plates. Then, 10 μL of compounds were added to assay plates and incubated for 10 min at room temperature. […] The binding reaction was incubated for 1 h at 37° C. Membranes in assay reactions were then transferred to GF/C filter plates (UniFilter, Perkin Elmer) and washed three times using a FilterMate Harvester (Perkin Elmer) with cold assay buffer containing no GDP. Filter plates were then dried at 40° C. overnight followed by the addition of 30 μL/well of Beta Plate Scintillation liquid. Plates were top and bottom sealed before being read on TopCount scintillation counter (Perkin Elmer, Waltham, MA).

SMILES strings stand for the structures. Some results are limits rather than exact numbers.

For the compound `FC(F)(F)c1ccc(C(Cc2cccnn2)c2c[nH]cn2)c(Cl)c1` (centres unmarked) [Compound 201, 3-{2-[2-chloro-4-(trifluoromethyl)phenyl]-2-(4-imidazolyl)ethyl} pyridazine], the EC50 is over 500 nM.
To `Cc1cc(C[C@H](c2cnc[nH]2)c2cccc(C)c2C)n(C)n1` [Compound 68, 5-[(2S)-2-(2,3-dimethylphenyl)-2-(1H-imidazol-4-yl)ethyl]-1,3-dimethyl-1H-pyrazole] belongs over 500 nM.
To `Cc1cccc([C@@H](Cc2cccnn2)c2cnc[nH]2)c1C` [Compound 56, 3-[(2R)-2-(2,3-dimethylphenyl)-2-(1H-imidazol-4-yl)ethyl] pyridazine] belongs over 500 nM; to `Cc1cccc([C@@H](Cc2cccnn2)c2c[nH]cn2)c1Cl` [Compound 214, 3-[(R)-2-(2-chloro-3-tolyl)-2-(4-imidazolyl)ethyl] pyridazine], over 500 nM.
The value for `FC1(F)Oc2cccc(C(Cc3ccccn3)c3c[nH]cn3)c2O1` (centres unmarked) [Compound 115, 2,2-difluoro-4-[1-(4-imidazolyl)-2-(2-pyridyl)ethyl]-2H-1,3-benzodioxole] was 50 to 500 nM.
Consider `Cc1c(Cl)cccc1C(Cc1ccccn1)c1cnc[nH]1` (centres unmarked) [Compound 49, 2-[2-(3-chloro-2-methylphenyl)-2-(1H-imidazol-4-yl)ethyl] pyridine], for which the EC50 lay within 50 to 500 nM.
For the compound `Cc1cccc([C@@H](Cc2ccccn2)c2cnc[nH]2)c1C` [Compound 52, 2-[(2R)-2-(2,3-dimethylphenyl)-2-(1H-imidazol-4-yl)ethyl] pyridine], the EC50 is 10 to 50 nM.
The value for `FC(F)(F)c1ccccc1C(Cc1cccnn1)c1c[nH]cn1` (centres unmarked) [Compound 166, 3-{2-(4-imidazolyl)-2-[o-(trifluoromethyl)phenyl]ethyl}pyridazine] was over 500 nM.
To `Cc1cccc(C(Cc2cnn(C3CC3)c2)c2c[nH]cn2)c1C` (centres unmarked) [Compound 271, 1-cyclopropyl-4-[2-(4-imidazolyl)-2-(2,3-xylyl)ethyl]pyrazole] belongs under 10 nM.
Regarding `Cc1nc(C)c(C[C@H](c2c[nH]cn2)c2cccc(C)c2C)s1` [Compound 124, 5-[(S)-2-(4-imidazolyl)-2-(2,3-xylyl)ethyl]-2,4-dimethyl-1,3-thiazole], the EC50 was in the range of 10 to 50 nM.
The value for `c1cc2c(c([C@H](Cc3cnn(C4CC4)c3)c3c[nH]cn3)c1)OCC2` [Compound 290, 4-[(S)-2-(2,3-dihydro-1-benzofuran-7-yl)-2-(4-imidazolyl)ethyl]-1-] was under 10 nM; that for `Cc1cccc(C(Cc2ncccn2)c2cnc[nH]2)c1C` (centres unmarked) [Compound 93, 2-[2-(2,3-dimethylphenyl)-2-(1H-imidazol-4-yl)ethyl] pyrimidine] was 50 to 500 nM.
To `Cc1cccc(C(Cc2cocn2)c2c[nH]cn2)c1C` (centres unmarked) [Compound 126, 4-[2-(4-imidazolyl)-2-(2,3-xylyl)ethyl]-1,3-oxazole] belongs under 10 nM.
The value for `Cc1nccc(C[C@@H](c2cnc[nH]2)c2cccc(C)c2C)n1` [Compound 71, 4-[(2R)-2-(2,3-dimethylphenyl)-2-(1H-imidazol-4-yl)ethyl]-2-methyl-pyrimidine] was over 500 nM; that for `Cc1cccc(C(Cc2cncs2)c2c[nH]cn2)c1C` (centres unmarked) [Compound 116, 5-[2-(4-imidazolyl)-2-(2,3-xylyl)ethyl]-1,3-thiazole] was 10 to 50 nM; that for `Cc1cccc([C@H](Cc2cccnn2)c2cnc[nH]2)c1C` [Compound 55, 3-[(2S)-2-(2,3-dimethylphenyl)-2-(1H-imidazol-4-yl)ethyl] pyridazine] was 10 to 50 nM.
On to `Cc1cc(C)nc(CC(c2cnc[nH]2)c2cccc(C)c2C)c1` (centres unmarked) [Compound 95, 2-[2-(2,3-dimethylphenyl)-2-(1H-imidazol-4-yl)ethyl]-4,6-dimethyl-pyridine], for which the EC50 is under 10 nM.
For the compound `C#Cc1cccc(C(Cc2cccnn2)c2c[nH]cn2)c1` (centres unmarked) [Compound 229, 3-[2-(m-ethynylphenyl)-2-(4-imidazolyl)ethyl] pyridazine], the EC50 was over 500 nM.
To `COc1nccc(CC(c2ccc(C(F)F)cc2)c2c[nH]cn2)n1` (centres unmarked) [Compound 188, 4-{2-[p-(difluoromethyl)phenyl]-2-(4-imidazolyl)ethyl}-2-methoxypyrimidine] belongs over 500 nM; to `COc1cccc(C(Cc2ccnc(C)n2)c2c[nH]cn2)c1C` (centres unmarked) [Compound 149, 4-[2-(4-imidazolyl)-2-(3-methoxy-2-tolyl)ethyl]-2-methylpyrimidine], 10 to 50 nM; to `Cc1cccc([C@H](Cc2cscn2)c2c[nH]cn2)c1C` [Compound 120, 4-[(S)-2-(4-imidazolyl)-2-(2,3-xylyl)ethyl]-1,3-thiazole], over 500 nM.
To `COc1nccc(CC(c2c[nH]cn2)c2cccc(C#N)c2F)n1` (centres unmarked) [Compound 177, 2-fluoro-3-[1-(4-imidazolyl)-2-(2-methoxy-4-pyrimidinyl)ethyl] benzonitrile] belongs 50 to 500 nM; to `Cc1cccc([C@H](Cc2ccccn2)c2cnc[nH]2)c1Cl` [Compound 47, 2-[(2S)-2-(2-chloro-3-methylphenyl)-2-(1H-imidazol-4-yl)ethyl] pyridine], over 500 nM.
The value for `Cc1cccc([C@@H](Cc2cncs2)c2c[nH]cn2)c1C` [Compound 128, 5-[(R)-2-(4-imidazolyl)-2-(2,3-xylyl)ethyl]-1,3-thiazole] was 50 to 500 nM; that for `Cc1c(Cl)cccc1[C@@H](Cc1cccnc1)c1cnc[nH]1` [Compound 63, 3-[(2R)-2-(3-chloro-2-methylphenyl)-2-(1H-imidazol-4-yl)ethyl]pyridine] was under 10 nM.
Take `COc1nccc(CC(c2c[nH]cn2)c2cccc(C)c2Cl)n1` (centres unmarked) [Compound 186, 4-[2-(2-chloro-3-tolyl)-2-(4-imidazolyl)ethyl]-2-methoxypyrimidine]: the EC50 was under 10 nM.
The value for `COc1ncc(C[C@@H](c2c[nH]cn2)c2cccc(Cl)c2C)cn1` [Compound 108, 5-[(R)-2-(3-chloro-2-tolyl)-2-(4-imidazolyl)ethyl]-2-methoxy-pyrimidine] was 50 to 500 nM; that for `Cc1ccc(Cl)cc1C(Cc1cccnn1)c1c[nH]cn1` (centres unmarked) [Compound 225, 3-[2-(5-chloro-2-tolyl)-2-(4-imidazolyl)ethyl] pyridazine] was over 500 nM; that for `COc1ccc(Cl)c(C(Cc2cccnn2)c2c[nH]cn2)c1` (centres unmarked) [Compound 227, 3-[2-(2-chloro-5-methoxyphenyl)-2-(4-imidazolyl)ethyl] pyridazine] was over 500 nM.
The value for `COc1cccc(C[C@H](c2cccc(Cl)c2)c2cnc[nH]2)n1` [Compound 22, 2-[(2R)-2-(3-chlorophenyl)-2-(1H-imidazol-4-yl)ethyl]-6-methoxypyridine] was over 500 nM.
The value for `COc1c(Cl)cccc1C(Cc1cccnn1)c1c[nH]cn1` (centres unmarked) [Compound 160, 3-[2-(3-chloro-2-methoxyphenyl)-2-(4-imidazolyl)ethyl] pyridazine] was over 500 nM; that for `Cc1cccc(C(Cc2cnccn2)c2cnc[nH]2)c1C` (centres unmarked) [Compound 94, 2-[2-(2,3-dimethylphenyl)-2-(1H-imidazol-4-yl)ethyl] pyrazine] was 50 to 500 nM; that for `Cc1ccnc(C[C@H](c2cnc[nH]2)c2cccc(C)c2C)n1` [Compound 78, 2-[(2S)-2-(2,3-dimethylphenyl)-2-(1H-imidazol-4-yl)ethyl]-4-methylpyrimidine] was over 500 nM.
As for `Cc1cccc([C@H](Cc2cccnc2)c2cnc[nH]2)c1Cl` [Compound 60, 3-[(2S)-2-(2-chloro-3-methylphenyl)-2-(1H-imidazol-4-yl)ethyl] pyridine], the EC50 was under 10 nM.
On to `Cc1cncc(C[C@H](c2cnc[nH]2)c2cccc(C)c2C)n1` [Compound 82, 2-[(2S)-2-(2,3-dimethylphenyl)-2-(1H-imidazol-4-yl)ethyl]-6-methylpyrazine], for which the EC50 is 50 to 500 nM.

In general, EC50 refers to the concentration at which the effect is half-maximal.
